Broadly, the pIC50 is the negative decadic logarithm of the IC50, by convention in mol/L.

pIC50: −log10 of the molar value. Where two headings read alike, the source gives them in different places. Bounds are passed on as bounds.

Data on 20 compounds can be found in patent US20150352108A1, “AMINO-PYRIMIDINE COMPOUNDS AS INHIBITORS OF TBK1 AND/OR IKK EPSILON” (Alzheimer's Institute of America, priority 2009, published 2015).

Assay [1] addresses T1, IKKε (Homo sapiens, UniProt Q14164).
T1 construct: His-tag; made in house; host or cells: Sf9 insect cells
T1 sequence (Q14164 1-716): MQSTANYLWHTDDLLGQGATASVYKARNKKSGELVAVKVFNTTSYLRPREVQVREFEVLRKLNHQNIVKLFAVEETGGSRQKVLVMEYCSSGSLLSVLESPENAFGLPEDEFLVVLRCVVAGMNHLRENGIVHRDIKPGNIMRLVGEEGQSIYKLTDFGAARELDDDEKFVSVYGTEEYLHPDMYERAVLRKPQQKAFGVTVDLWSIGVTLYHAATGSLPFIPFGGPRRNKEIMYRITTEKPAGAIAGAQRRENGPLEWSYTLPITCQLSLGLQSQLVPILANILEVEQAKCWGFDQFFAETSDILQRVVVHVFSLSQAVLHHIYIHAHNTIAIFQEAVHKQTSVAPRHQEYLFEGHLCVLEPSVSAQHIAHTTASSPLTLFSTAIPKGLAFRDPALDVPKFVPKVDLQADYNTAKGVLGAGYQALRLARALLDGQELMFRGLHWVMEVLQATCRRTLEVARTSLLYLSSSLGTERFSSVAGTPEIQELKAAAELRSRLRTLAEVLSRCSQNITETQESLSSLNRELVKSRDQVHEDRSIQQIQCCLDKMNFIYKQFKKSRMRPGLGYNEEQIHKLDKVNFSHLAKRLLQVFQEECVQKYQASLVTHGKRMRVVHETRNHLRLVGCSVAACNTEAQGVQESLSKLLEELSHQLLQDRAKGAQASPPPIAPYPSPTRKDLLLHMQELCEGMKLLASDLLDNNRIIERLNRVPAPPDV
Put plainly: In-vitro IKKε kinase assay ([γ33]ATP filter-plate). The class given is biochemical. The gist of the method: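 His-tagged IKKε and TBK1 from Sf9 cells were assayed with myelin basic protein or casein and [γ33]ATP at 2×Km ATP (32 μM for IKKε, 60 μM for TBK1). Enzyme was 0.1 or 0.015 μg/ml for IKKε and 0.1 or 0.02 μg/ml for TBK1 (normal/sensitized). Reactions ran 30-45 min, were filter-captured, scintillation-counted, and normalized to DMSO after background subtraction.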

In assay [2] the target is T2, TBK1 (Homo sapiens, UniProt Q9UHD2).
T2 construct: His-tag; made in house; host or cells: Sf9 insect cells
T2 sequence (Q9UHD2 1-729): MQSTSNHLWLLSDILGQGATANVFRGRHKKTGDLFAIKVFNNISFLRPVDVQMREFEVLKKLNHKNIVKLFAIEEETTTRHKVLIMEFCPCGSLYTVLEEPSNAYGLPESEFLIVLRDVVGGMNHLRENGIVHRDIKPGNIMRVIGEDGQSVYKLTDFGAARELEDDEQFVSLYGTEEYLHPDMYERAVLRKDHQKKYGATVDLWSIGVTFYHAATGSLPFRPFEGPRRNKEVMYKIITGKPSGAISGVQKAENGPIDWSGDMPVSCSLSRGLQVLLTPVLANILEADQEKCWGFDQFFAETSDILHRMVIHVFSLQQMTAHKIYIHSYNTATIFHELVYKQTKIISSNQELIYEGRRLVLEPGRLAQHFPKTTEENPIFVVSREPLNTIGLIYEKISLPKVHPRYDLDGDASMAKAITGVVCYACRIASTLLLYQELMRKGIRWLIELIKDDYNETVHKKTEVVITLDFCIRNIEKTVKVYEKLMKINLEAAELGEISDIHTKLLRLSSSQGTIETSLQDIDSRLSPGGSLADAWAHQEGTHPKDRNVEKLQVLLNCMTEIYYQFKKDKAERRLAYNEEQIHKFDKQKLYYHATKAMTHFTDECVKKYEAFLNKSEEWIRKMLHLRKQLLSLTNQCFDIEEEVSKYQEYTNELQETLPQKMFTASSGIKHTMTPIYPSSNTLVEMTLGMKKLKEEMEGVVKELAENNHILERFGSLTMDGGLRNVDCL
Put plainly: In-vitro TBK1 kinase assay ([γ33]ATP filter-plate). It is filed as biochemical. As for the experimental part:
IKKε enzyme was produced as a His-tag fusion in Sf9 cells and used at a final concentration of […]. TBK1 enzyme was produced as a His-tag fusion in Sf9 cells and used at a final concentration of 0.1 μg/ml. Kinase reactions were carried out in reaction buffer using myelin basic protein (Millipore, Ballerica, Mass.) or casein (Sigma, St. Louis, Mo.) as substrate at an ATP concentration equal to twice the Km,ATP value for each enzyme, corresponding to 32 μM ATP for IKKε and 60 μM ATP for TBK1, in the presence of 0.3 μCi [γ^33]ATP (PerkinElmer, Waltham, Mass.). Final enzyme concentrations were 0.1 or 0.015 μg/ml (IKKε) and 0.1 or 0.02 μg/ml (TBK1), representing “normal” and “sensitized” assay conditions respectively. Test compounds (or DMSO solvent as a control) were added prior to initiation of the reactions. Reactions were terminated after 30-45 minutes by adding 3% phosphoric acid. Terminated reactions were transferred to P-81 cellulose phosphate filterplates (Whatman, Inc., Piscataway, N.J.) and washed with 1% phosphoric acid on a vacuum apparatus. After air drying, scintillant (PerkinElmer, Waltham, Mass.) was added and the plates were read on a PerkinElmer TopCount NXT instrument. Counts were normalized to DMSO controls after background subtraction.

[3] abbreviates: text bins, read-out: IC50 for inhibition of the kinase activity of IKKε.
[4] abbreviates: text bins, read-out: IC50 for inhibition of the kinase activity of TBK1.

Regarding `COc1ccc(-c2ccnc(Nc3cc(OC)c(OC)c(OC)c3)n2)cc1C#N` [compound 341, 2-methoxy-5-{2-[(3,4,5-trimethoxyphenyl)amino]pyrimidin-4-yl}benzonitrile], the pIC50 in assay [1] (setting [3]) is above 8.30; in assay [2] (setting [4]), above 8.00.
The like results for `COc1ccc(Nc2nccc(-c3ccc(OC)c(C#N)c3)n2)cc1Cl` [compound 327, 5-{2-[(3-Chloro-4-methoxyphenyl)amino]pyrimidin-4-yl}-2-methoxybenzonitrile] were, in that order, 7.30 to 8.30 and 7.00 to 8.00.
As to `COCCOC1CN(c2cc(Nc3nccc(-c4ccc(OC5CCOCC5)c(C#N)c4)n3)ccc2C)C1` [compound 596, 5-[2-({3-[3-(2-Methoxyethoxy)azetidin-1-yl]-4-methylphenyl}amino)pyrimidin-4-yl]-2-(tetrahydro-2H-pyran-4-yloxy)benzonitrile], the pIC50 was 9.15 in assay [1] (Table 3, read-out: IKKε IC50); above 8.30 in assay [1] (setting [3]); 9.00 in assay [2] (Table 3, read-out: TBK1 IC50); above 8.00 in assay [2] (setting [4]).
For the compound `N#Cc1cc(-c2ccnc(Nc3ccc(N4CCOCC4)cc3)n2)ccc1N` [Example 217, 2-Amino-5-(2-{[4-(morpholin-4-yl)phenyl]amino}pyrimidin-4-yl)benzonitrile], the pIC50 in assay [1] (setting [3]) is 7.30 to 8.30; in assay [2] (setting [4]) it was above 8.00.
Consider `CS(=O)(=O)N1CCC(Oc2ccc(-c3ccnc(Nc4ccc(N5CCOCC5)cc4)n3)cc2C#N)CC1` [Example 246, 2-{[1-(Methylsulfonyl)piperidin-4-yl]oxy}-5-(2-{[4-(morpholin-4-yl)phenyl]amino}pyrimidin-4-yl)benzonitrile], for which the figures for the pIC50 in assay [1] (setting [3]) and in assay [2] (setting [4]) were above 8.30 and above 8.00, respectively.
`COC(=O)C(C)Oc1ccc(-c2ccnc(Nc3ccc(N4CCOCC4)cc3)n2)cc1C#N` (centres unmarked) [Example 63, Methyl 2-[2-cyano-4-(2-{[4-(morpholin-4-yl)phenyl]amino}pyrimidin-4-yl)phenoxy] propanoate]: the pIC50 is 7.30 to 8.30 in assay [1] (setting [3]) and 7.00 to 8.00 in assay [2] (setting [4]).
As to `N#Cc1cc(-c2ccnc(Nc3ccc(N4CCOCC4)cc3)n2)ccc1NC(=O)C1CC1` [Example 91, N-[2-cyano-4-(2-{[4-(morpholin-4-yl)phenyl]amino}pyrimidin-4-yl)phenyl] cyclopropane-carboxamide], the pIC50 in assay [1] (setting [3]) was above 8.30; in assay [2] (setting [4]), above 8.00.
`COc1ccc(-c2ccnc(Nc3ccc(N4CCCNC(=O)C4)c(OC)c3)n2)cc1C#N` [Example 104, 2-Methoxy-5-(2-{[3-methoxy-4-(3-oxo-1,4-diazepan-1-yl)phenyl]amino}pyrimidin-4-yl)benzonitrile]: the pIC50 in assay [1] (setting [3]) is above 8.30; in assay [2] (setting [4]) it was above 8.00.
As for `N#Cc1cc(-c2ccnc(Nc3ccc(N4CCOCC4)cc3)n2)ccc1OCC1CCN(C(=O)CO)CC1` [Example 233, 2-{[1-(hydroxyacetyl)piperidin-4-yl]methoxy}-5-(2-{[4-(morpholin-4-yl)phenyl]amino}pyrimidin-4-yl)benzonitrile], the pIC50 in assay [1] (setting [3]) is 7.30 to 8.30; in assay [2] (setting [4]), above 8.00.
The like results for `CC(C)C(=O)Nc1ccc(-c2ccnc(Nc3cccc(CCO)c3)n2)cc1C#N` [compound 450, N-[2-cyano-4-(2-{[3-(2-hydroxyethyl)phenyl]amino}pyrimidin-4-yl)phenyl]-2-methylpropanamide] were, in that order, 7.30 to 8.30 and above 8.00.
The like results for `CNS(=O)(=O)Cc1ccc(Nc2nccc(-c3ccc(OCC4CC4)c(C#N)c3)n2)cc1` [compound 644, 1-[4-({4-[3-Cyano-4-(cyclopropylmethoxy)phenyl]pyrimidin-2-yl}amino)phenyl]-N-methylmethane-sulfonamide] were, in that order, above 8.30 and above 8.00.
With `COc1cc(Nc2nccc(-c3ccc(OC)c(C#N)c3)n2)cc(OC2CCN(C)CC2)c1` [Example 259, 2-Methoxy-5-[2-({3-methoxy-5-[(1-methylpiperidin-4-yl)oxy]phenyl}amino)pyrimidin-4-yl]benzonitrile], the pIC50 in assay [1] (setting [3]) was 7.30 to 8.30; in assay [2] (setting [4]) it was 7.00 to 8.00.
The like results for `COc1ccc(-c2ccnc(Nc3ccc(N4CCOCC4)c(Cl)c3)n2)cc1C#N` [Example 98] were, in that order, above 8.30 and above 8.00.
The like results for `COc1ccc(-c2ccnc(Nc3ccc(N4CCNC(=O)C4)c(OC)c3)n2)cc1C#N` [compound 370, 2-Methoxy-5-(2-{[3-methoxy-4-(3-oxopiperazin-1-yl)phenyl]amino}pyrimidin-4-yl)benzonitrile] were, in that order, above 8.30 and above 8.00.
In the case of `COc1cc(Nc2nccc(-c3ccc(OC4CCOCC4)c(C#N)c3)n2)ccc1S(=O)(=O)N1CCCC1` [compound 394, 5-(2-{[3-methoxy-4-(pyrrolidin-1-ylsulfonyl)phenyl]amino}pyrimidin-4-yl)-2-(tetrahydro-2H-pyran-4-yloxy)benzonitrile], the pIC50 in assay [1] (setting [3]) was above 8.30; in assay [2] (setting [4]), above 8.00.
On to `CCN1CCN(c2ccc(-c3ccnc(Nc4ccc(N5CCOCC5)cc4)n3)cc2C#N)CC1` [Example 123, 2-(4-Ethylpiperazin-1-yl)-5-(2-{[4-(morpholin-4-yl)phenyl]amino}pyrimidin-4-yl)benzonitrile], for which the pIC50 was 7.30 to 8.30 in assay [1] (setting [3]) and 7.00 to 8.00 in assay [2] (setting [4]).
`COC(=O)c1ccc(Nc2nccc(-c3ccc(OC4CCOCC4)c(C#N)c3)n2)cc1OC` [Example 235, methyl 4-({4-[3-cyano-4-(tetrahydro-2H-pyran-4-yloxy)phenyl]pyrimidin-2-yl}amino)-2-methoxybenzoate]: the results for the pIC50 in assay [1] (setting [3]) and in assay [2] (setting [4]) were above 8.30 and above 8.00, respectively.
With `N#Cc1cc(-c2ccnc(Nc3ccc(N4CCOCC4)cc3)n2)ccc1OCCCO` [Example 210, 2-(3-Hydroxypropoxy)-5-(2-{[4-(morpholin-4-yl)phenyl]amino}pyrimidin-4-yl)benzonitrile], the pIC50 in assay [1] (setting [3]) is above 8.30; in assay [2] (setting [4]) it was above 8.00.
Turning to `N#Cc1cc(-c2ccnc(Nc3ccc(N4CCOCC4)cc3)n2)ccc1OC1CCN(S(N)(=O)=O)CC1` [Example 80, 4-[2-cyano-4-(2-{[4-(morpholin-4-yl)phenyl]amino}pyrimidin-4-yl)phenoxy]piperidine-1-sulfonamide], the pIC50 is 9.10 in assay [1] (Table 3, read-out: IKKε IC50); above 8.30 in assay [1] (setting [3]); 9.40 in assay [2] (Table 3, read-out: TBK1 IC50); above 8.00 in assay [2] (setting [4]).
In the case of `COCCNCc1ccc(Nc2nccc(-c3ccc(NC(=O)C4CC4)c(C#N)c3)n2)cc1` [compound 557], the pIC50 was 7.30 to 8.30 in assay [1] (setting [3]) and 7.00 to 8.00 in assay [2] (setting [4]).
